Experimental data: patent US20250129021A1, “SMALL MOLECULE PROTEIN SYNTHESIS MODULATORS” (Interdict Bio, Inc., priority 2023, published 2025)
Counter-ions that a name gives are not always drawn. Like-named read-outs stand apart in the source and are kept apart here.

Assays:
Type in all cases: biochemical
MYC = assay: In vitro transcription-translation (IVTT) assay, MYC reporter; conditions: HeLa S3 lysate, 2 hrs at 30° C.
Summary of the method: (§1)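 Reporter: mCherry, P2A, then 3×FLAG-target peptide-sfGFP fusion, IRES-initiated; HeLa S3 lysate IVTT; cpd dilutions 30 μM−0.1 μM half-log in 100% DMSO (dilution-plate conc); DNA added last; 2 h, 30° C; PBS quench.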

ALK = assay: In vitro transcription-translation (IVTT) assay, ALK reporter; conditions: HeLa S3 lysate, sfGFP/mCherry ratio, 2 hrs at 30° C.
Excerpt: (§2) All reporter constructs have been cloned into the pT7CFE1-CHis plasmid (ThermoFisher #88860) using Gibson assembly procedures (NEB #E2611L). The parental pT7CFE1-CHis plasmid contains an EMCV IRES at the 5′UTR for translation initiation, a multiple-cloning site (MCS) for gene insertion, an optional C-terminal His-epitope tag, and polyA sequence in the 3′UTR to regulate mRNA stability. All reporters are designed to be inserted at the MCS to include a red fluorescent protein (mCherry), P2A self-cleaving peptide which releases the preceding mCherry protein product, and a fusion open reading frame containing a 3×FLAG epitope, a peptide sequence of interest (TEST), and green fluorescent protein (sfGFP).
(§3) Construct Plasmid Preparation: All plasmids are isolated from MACH1 cells (ThermoFisher) grown overnight in ampicillin-containing luria broth, and purified using ZymoPure Express Plasmid Midiprep Kit (Zymo Research). Constructs are sequenced verified and diluted to a working concentration of 110 ng/μL.
(§4) HeLa S3 Lysate Preparation: HeLa S3 cell pellets are acquired from Ipracell/Ipratech (Belgium) and shipped as 4 mL frozen cell pellets on dry ice for storage at −80° C. until use. The procedure for lysate preparation is as follows. Prepare 1× Lysis Buffer, cold and stored on ice:
(§5) Each preparation takes 8 cell pellets (4 ml packed volume each, approximately 1.0×10^9 cells per pellet). Thaw cell pellets from −80° C. on ice for 90 mins. Lay pellets horizontally on top of the ice and rotate every 30 mins to ensure even thawing. Once thawed, add 4 mL of cold lysis buffer to each pellet, and using a serological pipet, gently pipet up and down to break up clumps. Incubate resuspended cells in ice for an additional 30 mins (plunged into ice). During 30 min incubation, rinse and RNase-zap (Ambion) glass dounces (use loose pestle “A”), gently dry and place on ice until needed. Prepare RNase-free Eppendorf tubes for spinning and for batch storage. Add batch labels to 1.5-1.7 mL RNase-free microcentrifuge tubes (labeling scheme below). Each batch will have an extra 1.5-1.7 mL RNase-free microcentrifuge tube for 40 μL of lysate, label the top of this tube (labeling scheme below). After 30 min incubation, transfer all 8 mL of cell pellet to dounce. Cell lysis is complete after douncing 100 times. Aliquot cell lysis into 1.5-1.7 mL temporary-microcentrifuge tubes. Place tubes in centrifuge with “fins” out, and spin at 1,200×g for 5 mins. After the first spin use a 1 mL pipet to resuspend each tube and repeat spin. This acts as an additional lysis step, is more vigorous and increases lysate yield. During second spin get liquid N2 and a fresh conical tube on ice. After spin is complete, transfer supernatant (lysate) from microcentrifuge tubes into the 50 mL conical tube and keep on ice. Repeat steps 10-14 for all other cell pellets until completed. Once all cell lysate has been transferred to the 50 mL conical tube pipet to mix so the solution is homogenous. Transfer 1 mL of lysate into batch-labeled microcentrifuge tubes and flash freeze in liquid nitrogen. Be sure to pipet up and down to mix throughout transfer step. Place all tubes in the […] for long-term storage.
(§6) In vitro transcription-translation assay setup: Each assay includes a master mix containing lysate and shared components, a 96-well plate containing compound titrations for testing, a 96-well DNA plate with reporter constructs to be tested, 96-well skirted PCR plates, and 96-well flat-bottom, black, fluorescent assay plates. […]

KRAS G12D = assay: In vitro transcription-translation (IVTT) assay, KRAS G12D reporter; conditions: HeLa S3 lysate, sfGFP/mCherry ratio, 2 hrs at 30° C.
Excerpt: as §2, §3, §4, §5, §6

CCND1 = assay: In vitro transcription-translation (IVTT) assay, CCND1 reporter; conditions: HeLa S3 lysate, 2 hrs at 30° C.
Summary of the method: as §1

MCL-1 = assay: In vitro transcription-translation (IVTT) assay, MCL-1 reporter; conditions: HeLa S3 lysate, 2 hrs at 30° C.
Summary of the method: as §1

CCNTB1 = assay: In vitro transcription-translation (IVTT) assay, CCNTB1 reporter; conditions: HeLa S3 lysate, 2 hrs at 30° C.
Summary of the method: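 HeLa S3 lysate-based coupled transcription-translation reactions with reporter plasmids, compounds in half-log dilutions (30 μM−0.1 μM, in DMSO), 2 h at 30° C. sfGFP/mCherry ratio, corrected for no-DNA background, normalized to no-drug control and fitted for IC50.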

[1] = IVTT assay, MYC reporter, normalized sfGFP/mCherry ratio, half-log dilutions 30 μM-0.1 μM

IC50 (MYC; sfGFP/mCherry ratio)	IC50 (ALK)	SMILES	further results
> 30 µM	10 to 20 µM	CCN(CC)CCNC(=O)O[C@@H]1[C@@H](O)CN[C@@H]1Cc1ccc(OC)cc1 [V187384, (2R,3S,4S)-4-hydroxy-2-[(4-methoxyphenyl)methyl]pyrrolidin-3-yl N-[2-(diethylamino)ethyl]carbamate]	
		COc1ccc(C[C@H]2NC[C@H](O)[C@H]2OC(=O)NCCNc2c(NCc3ccccc3)c(=O)c2=O)cc1 [V187519, (2R,3S,4S)-4-hydroxy-2-[(4-methoxyphenyl)methyl]pyrrolidin-3-yl N-(2-{[2-(benzylamino)-3,4-dioxocyclobut-1-en-1-yl]amino}ethyl)carbamate; trifluoroacetic acid]	IC50 (KRAS G12D): > 30 µM
10 to 20 µM	< 10 µM	COc1ccc(C[C@H]2NC[C@H](O)[C@H]2OC(=O)NCc2nn[nH]n2)cc1 [V187534, (2R,3S,4S)-4-hydroxy-2-[(4-methoxyphenyl)methyl]pyrrolidin-3-yl N-(2H-1,2,3,4-tetrazol-5-ylmethyl) carbamate; trifluoroacetic acid]	
> 30 µM		COc1ccc(C[C@H]2NC[C@H](O)[C@H]2OC(=O)Nc2nnc(CN(Cc3ccccc3)Cc3ccccc3)s2)cc1 [V187551, (2R,3S,4S)-4-hydroxy-2-[(4-methoxyphenyl)methyl]pyrrolidin-3-yl N-{5-[(dibenzylamino)methyl]-1,3,4-thiadiazol-2-yl}carbamate]	IC50 (KRAS G12D): > 30 µM
20 to 30 µM	< 10 µM	COc1ccc(C[C@H]2NC[C@H](O)[C@H]2OC(=O)NCCN)cc1 [V187575, (2R,3S,4S)-4-hydroxy-2-[(4-methoxyphenyl)methyl]pyrrolidin-3-yl N-(2-aminoethyl)carbamate; trifluoroacetic acid]	
< 10 µM	10 to 20 µM	COc1ccc(C[C@H]2NC[C@H](O)[C@H]2OC(=O)NCCN2CC[C@H](O)C2)cc1 [V187576, (2R,3S,4S)-4-hydroxy-2-[(4-methoxyphenyl)methyl]pyrrolidin-3-yl N-{2-[(3S)-3-hydroxypyrrolidin-1-yl]ethyl}carbamate trifluoroacetic acid salt]	
10 to 20 µM	20 to 30 µM	COc1ccc(C[C@H]2NC[C@H](O)[C@H]2OC(=O)NCCN2CC(O)C2)cc1 [V187579, (2R,3S,4S)-4-hydroxy-2-[(4-methoxyphenyl)methyl]pyrrolidin-3-yl N-[2-(3-hydroxyazetidin-1-yl)ethyl]carbamate; trifluoroacetic acid]	
> 30 µM	10 to 20 µM	COc1ccc(C[C@H]2NC[C@H](O)[C@H]2OC(=O)NCCN2CC(C)(O)C2)cc1 [V187580, (2R,3S,4S)-4-hydroxy-2-[(4-methoxyphenyl)methyl]pyrrolidin-3-yl N-[2-(3-hydroxy-3-methylazetidin-1-yl)ethyl]carbamate; trifluoroacetic acid]	
	< 10 µM	CNC(=O)O[C@@H]1[C@@H](O)CN[C@@H]1Cc1ccc(OC)cc1 [V187583, (2R,3S,4S)-4-hydroxy-2-[(4-methoxyphenyl)methyl]pyrrolidin-3-yl N-methylcarbamate; trifluoroacetic acid]	
< 10 µM	< 10 µM	COc1ccc(C[C@H]2NC[C@H](O)[C@H]2OC(=O)NCCCO)cc1 [V187585, (2R,3S,4S)-4-hydroxy-2-[(4-methoxyphenyl)methyl]pyrrolidin-3-yl N-(3-hydroxypropyl)carbamate]	IC50 (CCND1; sfGFP/mCherry ratio): < 10 µM; IC50 (MCL-1; sfGFP/mCherry ratio): < 10 µM
> 30 µM	> 30 µM	COc1ccc(C[C@H]2NC[C@H](O)[C@H]2OC(=O)NCCN2C[C@@H](NC(C)=O)[C@H](NC(C)=O)C2)cc1 [V187588, (2R,3S,4S)-4-hydroxy-2-[(4-methoxyphenyl)methyl]pyrrolidin-3-yl N-{2-[(3R,4R)-3,4-diacetamidopyrrolidin-1-yl]ethyl}carbamate; trifluoroacetic acid]	
> 30 µM	20 to 30 µM	COc1ccc(C[C@H]2NC[C@H](O)[C@H]2OC(=O)NCCOCCN2CCNCC2)cc1 [V187626, (2R,3S,4S)-4-hydroxy-2-[(4-methoxyphenyl)methyl]pyrrolidin-3-yl N-{2-[2-(piperazin-1-yl)ethoxy]ethyl}carbamate; trifluoroacetic acid]	
	10 to 20 µM	COc1ccc(C[C@H]2NC[C@H](O)[C@H]2OC(=O)NCCN2CCC3(CCC3)C2)cc1 [V187641, (2R,3S,4S)-4-hydroxy-2-[(4-methoxyphenyl)methyl]pyrrolidin-3-yl N-(2-{6-azaspiro[3.4]octan-6-yl}ethyl)carbamate]	
> 30 µM	> 30 µM	COc1ccc(C[C@H]2NC[C@H](O)[C@H]2OC(=O)NCc2cn(-c3cc4ccc(O)cc4oc3=O)nn2)cc1 [V187692, (2R,3S,4S)-4-hydroxy-2-[(4-methoxyphenyl)methyl]pyrrolidin-3-yl N-{[1-(7-hydroxy-2-oxochromen-3-yl)-1,2,3-triazol-4-yl]methyl}carbamate; trifluoroacetic acid]	
10 to 20 µM	< 10 µM	COc1ccc(C[C@H]2NC[C@H](O)[C@H]2OC(=O)Nc2nccs2)cc1 [V187752, (2R,3S,4S)-4-hydroxy-2-[(4-methoxyphenyl)methyl]pyrrolidin-3-yl N-(1,3-thiazol-2-yl)carbamate Hydrochloride]	
> 30 µM	> 30 µM	COc1ccc(C[C@H]2NC[C@H](O)[C@H]2OC(=O)Nc2nc3ccccc3s2)cc1 [V187753, (2R,3S,4S)-4-hydroxy-2-[(4-methoxyphenyl)methyl]pyrrolidin-3-yl N-(1,3-benzothiazol-2-yl)carbamate; trifluoroacetic acid]	
	< 10 µM	COc1ccc(C[C@H]2NC[C@H](O)[C@H]2OC(=O)Nc2nc3ccccc3[nH]2)cc1 [V187754, (2R,3S,4S)-4-hydroxy-2-[(4-methoxyphenyl)methyl]pyrrolidin-3-yl N-(1H-1,3-benzodiazol-2-yl)carbamate]	
< 10 µM	< 10 µM	COc1ccc(C[C@H]2NC[C@H](O)[C@H]2OC(=O)Nc2ncc[nH]2)cc1 [V187755, (2R,3S,4S)-4-hydroxy-2-[(4-methoxyphenyl)methyl]pyrrolidin-3-yl N-(1H-imidazol-2-yl)carbamate]	IC50 (CCND1; sfGFP/mCherry ratio): < 10 µM
		O=C(NCC[C@@H]1CCCN1)O[C@@H]1[C@@H](O)CN[C@@H]1Cc1ccc(-c2ccc(F)c(F)c2)cc1 [V191962, (2R,3S,4S)-2-({3′,4′-difluoro-[1,1′-biphenyl]-4-yl}methyl)-4-hydroxypyrrolidin-3-yl N-{2-[(2S)-pyrrolidin-2-yl]ethyl}carbamate]	IC50 (CCND1; IVTT): > 30 µM; IC50 (MCL-1; IVTT, read-out: MCL1 IC50): > 30 µM; IC50 (MYC; [1]): > 30 µM; IC50 (CCNTB1): > 30 µM
		O=C(NCC[C@@H]1CCCN1)O[C@@H]1[C@@H](O)CN[C@@H]1Cc1ccc(-c2ccc(C(F)(F)F)cc2)cc1 [V191963, (2R,3S,4S)-4-hydroxy-2-{[4′-(trifluoromethyl)-[1,1′-biphenyl]-4-yl]methyl}pyrrolidin-3-yl N-{2-[(2S)-pyrrolidin-2-yl]ethyl}carbamate]	IC50 (CCND1; IVTT): > 30 µM; IC50 (MCL-1; IVTT, read-out: MCL1 IC50): 20 to 30 µM; IC50 (MYC; [1]): > 30 µM; IC50 (CCNTB1): 20 to 30 µM
